# Results published in the supplement of paper PMC10307832.
# What was measured:
# Test in all cases: relative viability (nuclei count vs DMSO), 5 days (fraction); higher = more cells survive
# [1] = compound: O=C(C[C@H]1NCCC[C@@H]1O)Cn1cnc2cc(Br)c(Cl)cc2c1=O (racemic) [Halofuginone] + Cc1cc(Nc2cc(N3CCN(C)CC3)nc(Sc3ccc(NC(=O)C4CC4)cc3)n2)n[nH]1 [Tozasertib] (partner 0.1 µM)
# In short: (§1)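 Five library-drug doses in √10 steps were combined with a fixed anchor-drug dose, or a single drug was given alone, by pin tool to lung cancer cell lines in 1536-well plates the day after seeding. Nuclei were stained and counted after 5 days. Relative viability is the nuclei count in treated wells over that in vehicle wells, taken as the median of duplicate plates.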
# Cediranib + Pictilisib = compound: COc1cc2c(Oc3ccc4[nH]c(C)cc4c3F)ncnc2cc1OCCCN1CCCC1 [Cediranib] + CS(=O)(=O)N1CCN(Cc2cc3nc(-c4cccc5[nH]ncc45)nc(N4CCOCC4)c3s2)CC1 [Pictilisib] (partner 1 µM)
# In short: as §1
# [2] = compound: O=C(C[C@H]1NCCC[C@@H]1O)Cn1cnc2cc(Br)c(Cl)cc2c1=O (racemic) [Halofuginone] + CC(C)C[C@H](NC(=O)[C@H](Cc1ccccc1)NC(=O)c1cnccn1)B(O)O [Bortezomib] (partner 0.002 µM)
# In short: as §1
# Decitabine + Pemetrexed = compound: Nc1ncn([C@H]2C[C@H](O)[C@@H](CO)O2)c(=O)n1 [Decitabine] + Nc1nc2[nH]cc(CCc3ccc(C(=O)N[C@@H](CCC(=O)O)C(=O)O)cc3)c2c(=O)[nH]1 [Pemetrexed] (partner 0.2 µM)
# In short: as §1
Cell Line,relative viability ([1]; first compound 0.001 µM),relative viability ([1]; first compound 0.003162 µM),relative viability ([1]; first compound 0.01 µM),relative viability ([1]; first compound 0.03162 µM),relative viability ([1]; first compound 0.1 µM),relative viability (Cediranib + Pictilisib; first compound 0.04 µM),relative viability (Cediranib + Pictilisib; first compound 0.4 µM),relative viability (Cediranib + Pictilisib; first compound 1.265 µM),relative viability (Cediranib + Pictilisib; first compound 4 µM),relative viability ([2]; first compound 0.001 µM),relative viability ([2]; first compound 0.003162 µM),relative viability ([2]; first compound 0.01 µM),relative viability ([2]; first compound 0.03162 µM),relative viability ([2]; first compound 0.1 µM),relative viability (Decitabine + Pemetrexed; first compound 0.04 µM),relative viability (Decitabine + Pemetrexed; first compound 0.1265 µM),relative viability (Decitabine + Pemetrexed; first compound 0.4 µM),relative viability (Decitabine + Pemetrexed; first compound 1.265 µM),relative viability (Decitabine + Pemetrexed; first compound 4 µM),relative viability (Cediranib + Pictilisib; first compound 0.1265 µM)
NCI-H1623,0.487,0.44,0.459,0.459,0.426,–,–,–,–,–,–,–,–,–,–,–,–,–,–,–
HCC-827,0.419,0.39,0.427,0.398,0.456,1.1,0.955,0.944,0.97,1.04,1.03,0.955,0.998,0.918,0.161,0.585,0.198,0.202,0.219,–
NCI-H322M,0.461,0.468,0.462,0.467,0.258,0.52,0.533,0.467,0.521,1.16,1.13,1.28,1.16,0.997,0.549,0.602,0.534,0.709,0.53,0.698
ChaGo-K-1,0.256,0.205,0.261,0.222,0.208,0.805,0.7,0.852,0.639,0.996,0.875,0.948,1.05,0.91,0.27,0.261,0.253,0.251,0.269,–
BEN,0.535,0.528,0.456,0.511,0.482,0.584,0.509,0.425,0.504,0.865,0.826,0.865,0.682,0.408,0.775,0.757,0.632,0.663,0.553,0.497
NCI-H2347,0.558,0.521,0.662,0.692,0.418,0.592,0.742,0.516,0.444,1.24,1.09,0.758,1.03,0.852,0.401,0.396,0.382,0.366,0.386,–
LOU-NH91,0.7,0.791,0.642,0.705,0.576,0.534,0.494,0.479,0.495,0.461,0.498,0.484,0.459,0.535,0.378,0.358,0.422,0.336,0.397,0.473
NCI-H2228,0.321,0.324,0.19,0.133,0.0815,0.522,0.459,0.288,0.557,1.06,0.856,0.988,0.426,0.151,0.232,0.208,0.179,0.166,0.163,0.504
NCI-H2342,0.522,0.493,0.498,0.478,0.506,–,–,–,–,–,–,–,–,–,0.734,0.733,0.731,0.642,0.663,–
HCC-366,0.142,0.115,0.0951,0.104,0.0283,0.138,0.127,0.0996,0.17,0.948,1.06,1.04,0.994,0.397,0.16,0.115,0.0833,0.0595,0.0583,0.148
NCI-H2405,0.906,0.776,0.682,0.775,0.64,0.457,0.416,0.305,0.415,1.07,0.948,0.968,0.943,0.904,0.851,0.998,0.787,0.632,0.524,0.708
Calu-6,–,–,–,–,–,0.97,0.931,0.824,1.13,1.04,1.17,0.974,0.452,0.137,–,–,–,–,–,0.985
201T,1,0.813,0.995,0.779,0.548,0.725,0.639,0.632,0.7,1.06,1.1,1.15,1.1,1.16,0.297,0.286,0.227,–,0.254,0.699
CAL-12T,0.354,0.279,0.352,0.305,0.262,0.431,0.438,0.319,0.501,1.13,1.04,–,1.37,0.894,1.07,1.04,0.599,0.609,0.36,–
HCC-44,1.16,0.994,1,0.824,0.17,0.589,0.552,0.669,0.714,0.926,0.848,0.794,0.802,0.575,0.638,0.632,0.547,0.595,0.548,–
